For one assay, the target named is T1, olfactory receptor OR5K1 (Homo sapiens, UniProt Q8NHB7).
T1 construct: expressed in transfected cells; host or cells: HEK293
T1 sequence (Q8NHB7 1-308): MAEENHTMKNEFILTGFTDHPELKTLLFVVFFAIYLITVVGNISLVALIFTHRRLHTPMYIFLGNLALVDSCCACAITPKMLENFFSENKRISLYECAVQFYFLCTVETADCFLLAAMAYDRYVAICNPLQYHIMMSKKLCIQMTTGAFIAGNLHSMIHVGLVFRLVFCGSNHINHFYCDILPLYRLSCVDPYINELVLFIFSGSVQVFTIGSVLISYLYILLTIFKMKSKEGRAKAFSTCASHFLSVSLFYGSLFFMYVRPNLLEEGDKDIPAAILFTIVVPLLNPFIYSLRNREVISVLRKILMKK
Briefly: Antagonist assay: inhibition of OR5K1 response to 2,6-dimethylpyrazine (luciferase reporter). In kind it is cell-based. The following applies: HEK293 cells expressing OR5K1; 2,6-dimethylpyrazine 1 mM + test substance 300 μM (cytotoxic flavoring agents re-evaluated at 333 μM + 100 μM); read-out: Inhibition rate (receptor response-inhibiting rate). The procedure:
The receptor response-inhibiting rate of a test substance was calculated as follows. The receptor activity (X−Y) by stimulation with 2,6-dimethylpyrazine alone was determined by subtracting the luminescence value (Y) in cells to which the receptor was introduced but were not stimulated with 2,6-dimethylpyrazine from the luminescence value (X) derived from firefly luciferase induced by stimulation with 2,6-dimethylpyrazine alone. Similarly, the receptor activity (Z−Y) in the presence of a test substance was determined by subtracting the luminescence value (Y) in cells not stimulated with 2,6-dimethylpyrazine from the luminescence value (Z) stimulated with a mixture of 2,6-dimethylpyrazine and the test substance. The reduction rate of the receptor activity (Z−Y) in the presence of a test substance to the receptor activity (X−Y) by stimulation with 2,6-dimethylpyrazine alone was calculated by the following computation expression: Inhibition rate (%)={1−(Z−Y)/(X−Y)}×100, to determine the receptor response-inhibiting rate of the test substance. In the measurement, multiple independent experiments were performed in duplicate, and the average of each experiment was used.
A general note: Reporter assays use an easily measured gene product as a stand-in for the process of interest.

Assay [1] is described as follows: Sensory test of reduction of the odor of 2,6-dimethylpyrazine in dough. The following applies: flavoring agent 0.5 μL added to dough 0.5 g containing 1% 2,6-dimethylpyrazine; four panelists; rating 1 to 5; FIG. 3. Here is the method:
A flavoring agent (0.5 μL) was added to dough (0.5 g) containing 2,6-dimethylpyrazine (1%, and the odor thereof was evaluated by comparing the strength of odor of 2,6-dimethylpyrazine in dough not applied with flavor by the flavoring agent. The sensory evaluation test was performed by four panelists. In the evaluation, a case where a strong odor of 2,6-dimethylpyrazine was smelled was rated as 1, and a case where the odor of 2,6-dimethylpyrazine was not smelled at all was rated as 5.

One may read the inhibition as how much of the control response was suppressed. Consider `O=C1CCCCCCCCCCCC(=O)OCCO1` [ethylene brassylate, 1,4-dioxacyclo-heptadecane-5,17-dione], for which the inhibition at 300 µM at olfactory receptor OR5K1 was ≥ 40%.

Take `CC(=CCC1CC=C(C)C1(C)C)CO` (stereo not shown) [Sandalmysore Core, 2-methyl-4-(2,2,3-trimethyl-3-cyclopenten-1-yl)-2-buten-1-ol]: the inhibition at 300 µM on olfactory receptor OR5K1 is ≥ 50%. Also, the “odor of 2,6-dimethylpyrazine in sensory test” value (“odor of 2,6-dimethylpyrazine” below) in assay [1] is “inhibited”.

`CCCCCCCC1CCC(=O)O1` (stereo not shown) [γ-undecalactone]: the “odor of 2,6-dimethylpyrazine” value in assay [1] was “inhibited”.

As to `CCC=C(C)C(O)CCCCC` (stereo not shown) [undecavertol, 4-methyl-3-decen-5-ol], the inhibition at 300 µM on olfactory receptor OR5K1 is ≥ 75%. Moreover, in assay [1], the “odor of 2,6-dimethylpyrazine” value was “inhibited”.

Consider `CC1=CC(C)C(C=O)CC1` (stereo not shown) [triplal, 2,4-dimethyl-3-cyclohexene-1-carboxyaldehyde], for which the “odor of 2,6-dimethylpyrazine” value in assay [1] is “inhibited”.

As for `CC(=O)/C(C)=C/C1C(C)=CCCC1(C)C` (stereo not drawn) [α-isomethyl ionone], the “odor of 2,6-dimethylpyrazine” value in assay [1] is “inhibited”.

Turning to `O=C(OCCc1ccccc1)c1ccccc1O` [phenylethyl salicylate], on olfactory receptor OR5K1, the inhibition at 300 µM was ≥ 75%.

Take `CC(C=O)Cc1ccc(C(C)(C)C)cc1` (stereo not drawn) [lilial, α-methyl-β-(p-tert-butylphenyl)-propionaldehyde]: the inhibition at 300 µM on olfactory receptor OR5K1 was ≥ 50%. Moreover, in assay [1], the “odor of 2,6-dimethylpyrazine” value is “inhibited”.

For the molecule `CC(C)=CCCC(C)CC=O` (stereo not shown) [citronellal, 3,7-dimethyl-6-octenal], the inhibition at 300 µM at olfactory receptor OR5K1 was ≥ 50%.

As to `CC1(C)CCCC2(C)C1CCC1(C)OCCC12` (stereo not shown) [Ambrotech, dodecahydro-3a,6,6,9a-tetramethyl-naphtho[2,1-b]furan], the inhibition at 300 µM on olfactory receptor OR5K1 was ≥ 50%.

As for `CC(C)CCCC(C)CCO` (stereo not shown) [tetrahydrogeraniol, 3,7-dimethyl-1-octanol], the inhibition at 300 µM on olfactory receptor OR5K1 was ≥ 50%.

For `CC(C)=CCC/C(C)=C/CO` [geraniol, (E)-3,7-dimethyl-2,6-octadien-1-ol], the inhibition at 300 µM on olfactory receptor OR5K1 is ≥ 40%.

Regarding `C=CCCC(=O)C1=CCCC(C)(C)C1` [Dynascone, 1-(5,5-dimethyl-1-cyclohexen-1-yl)-4-penten-1-one], the inhibition at 300 µM on olfactory receptor OR5K1 was ≥ 40%. Besides, the “odor of 2,6-dimethylpyrazine” value in assay [1] is on record as “inhibited”.

In the case of `CC(=O)c1cc2c(cc1C)C(C)(C)C(C)CC2(C)C` (stereo not shown) [Tonalid, 1-(5,6,7,8-tetrahydro-3,5,5,6,8,8-hexamethyl-2-naphthalenyl)-ethanone], at olfactory receptor OR5K1, the inhibition at 300 µM was ≥ 75%.

Regarding “ethyl-(3aα,4α,7α,3aα)-octahydro-4,7-methano-3aH-indene-3a-carboxylate [Fruitate]”, the “odor of 2,6-dimethylpyrazine” value in assay [1] is reported as “inhibited”.

`CC(C)=CCCC(C)=CC=O` [citral, 3,7-dimethyl-2,6-octadienal]: the inhibition at 300 µM at olfactory receptor OR5K1 is ≥ 75%.

Consider `CC1C/C=C/CCCCCCCCCC(=O)C1` (stereo not shown) [δ-muscenone, (5E)-3-methylcyclopenta-5-decen-1-one], for which the “odor of 2,6-dimethylpyrazine” value in assay [1] is “inhibited”.

Turning to `CC=CC(=O)C1=C(C)C=CCC1(C)C` [damascenone, 1-(2,6,6-trimethyl-1,3-cyclohexadien-1-yl)-2-buten-1-one], the inhibition at 300 µM at olfactory receptor OR5K1 is ≥ 40%. Besides, the “odor of 2,6-dimethylpyrazine” value in assay [1] is “inhibited”.

Take `CCC(O)COC1CCCCC1C(C)(C)C` (stereo not shown) [Amber Core, 1-(2-tert-butylcyclohexyloxy)-2-butanol]: the inhibition at 300 µM at olfactory receptor OR5K1 was ≥ 75%. For the same molecule, in assay [1], the “odor of 2,6-dimethylpyrazine” value was “inhibited”.

Take `CC(=O)O[C@]1(C)CC[C@@]23C[C@@H]1C(C)(C)[C@@H]2CC[C@H]3C` [cedryl acetate]: the inhibition at 300 µM at olfactory receptor OR5K1 was ≥ 50%.

As for `CC(=O)C1(C)CC2=C(CCCC2(C)C)CC1C` (stereo not shown) [Iso E Super, 7-acetyl-1,2,3,4,5,6,7,8-octahydro-1,1,6,7-tetramethyl-naphthalene], the inhibition at 300 µM at olfactory receptor OR5K1 was ≥ 75%.

On to `C=CCc1ccc(O)c(OC)c1` [eugenol, 1-allyl-3-methoxy-4-hydroxybenzene], for which the inhibition at 300 µM at olfactory receptor OR5K1 is ≥ 40%.

Regarding `CCCCCCOC(=O)c1ccccc1O` [hexyl salicylate], the inhibition at 300 µM at olfactory receptor OR5K1 was ≥ 40%.

Take `CC(C)[C@H]1CC[C@@H](CO)CC1` [mayol, cis-4-isopropyl-cyclohexylmethanol]: the inhibition at 300 µM at olfactory receptor OR5K1 was ≥ 40%.

Consider `CC(=O)C=CC1=C(C)CCCC1(C)C` [β-ionone, 4-(2,6,6-trimethyl-1-cyclohexen-1-yl)-3-buten-2-one], for which, in assay [1], the “odor of 2,6-dimethylpyrazine” value is on record as “inhibited”.

Turning to `CC=Cc1ccc(OCc2ccccc2)c(OC)c1` [benzyl isoeugenol, 2-methoxy-1-(phenylmethoxy)-4-(1-propenyl)-benzene], on olfactory receptor OR5K1, the inhibition at 300 µM is ≥ 50%.

`CCCCCC1=C(C)CCC1=O` [dihydrojasmon, 2-pentyl-3-methyl-2-cyclopenten-1-one]: the inhibition at 300 µM on olfactory receptor OR5K1 is ≥ 40%.

Regarding `O=CC=Cc1ccccc1` [cinnamaldehyde], the inhibition at 300 µM at olfactory receptor OR5K1 was ≥ 50%.

Turning to `CC(C=O)c1ccccc1` (stereo not shown) [hydratropic aldehyde, 2-phenyl-propionaldehyde], the inhibition at 300 µM at olfactory receptor OR5K1 is ≥ 50%.

On to `CC(=O)C1=C(C)C2CC3(C1)C(C)CCC3C2(C)C` (stereo not shown) [acetyl cedrene, 1-(2,3,4,7,8,8a-hexahydro-3,6,8,8-tetramethyl-1H-3a,7-methanoazulen-5-yl)-ethanone], for which the inhibition at 300 µM on olfactory receptor OR5K1 is ≥ 50%.

For the molecule `CC(=O)c1ccc2ccccc2c1` [β-methyl naphthyl ketone], the “odor of 2,6-dimethylpyrazine” value in assay [1] was “inhibited”.

Consider `Cc1ccc(C(C)C)c(O)c1` [thymol, 5-methyl-2-(1-methylethyl)-phenol], for which the inhibition at 300 µM at olfactory receptor OR5K1 is ≥ 75%.

For the molecule `CC(C=O)C1CCCCC1` (stereo not shown) [Pollenal II, 2-cyclohexylpropanal], the inhibition at 300 µM on olfactory receptor OR5K1 was ≥ 50%.

Turning to `CCCCCCC(C=O)=Cc1ccccc1` [α-hexylcinnamic aldehyde], the “odor of 2,6-dimethylpyrazine” value in assay [1] is listed as “inhibited”.

On to `CC(=O)c1cc(C(C)(C)C)cc2c1C=CC2(C)C` [celestolide, 6-tert-butyl-1,1-dimethylinden-4-yl methyl ketone], for which the inhibition at 300 µM at olfactory receptor OR5K1 is ≥ 40%.

As for `CC(C)=CCCC(C)CCOCC=O` (stereo not shown) [citronellyloxyacetaldehyde, 6,10-dimethyl-3-oxa-9-undecenal], the inhibition at 300 µM on olfactory receptor OR5K1 was ≥ 40%.

`CC(C=O)Cc1ccc2c(c1)OCO2` (stereo not drawn) [helional, α-methyl-3,4-methylenedioxyhydrocinnamic aldehyde]: in assay [1], the “odor of 2,6-dimethylpyrazine” value is given as “inhibited”.

For the molecule `C=C(OCC)C1C(C)(C)CC(=O)CC1(C)C` [kephalis, 4-(1-ethoxyvinyl)-3,3,5,5-tetramethyl cyclohexanone], the inhibition at 300 µM on olfactory receptor OR5K1 was ≥ 50%.

As to `CCC(=CCC1CC=C(C)C1(C)C)CO` (stereo not shown) [bacdanol, 2-ethyl-4-(2,2,3-trimethyl-3-cyclopenten-1-yl)-2-buten-1-ol], the inhibition at 300 µM at olfactory receptor OR5K1 is ≥ 75%.

For `CC(=O)c1c(C)c([N+](=O)[O-])c(C(C)(C)C)c([N+](=O)[O-])c1C` [musk ketone, 4-tert-butyl-2,6-dimethyl-3,5-dinitro-acetophenone], the inhibition at 300 µM at olfactory receptor OR5K1 was ≥ 40%.

The values are drawn from patent US9057090B2, “Method of identifying an agent for inhibiting odor of pyrazine derivatives” (Kao Corporation, priority 2012, dated 2015).
